This passage reports IC50 and inhibition results from PMC9504648 (Marine Drugs, 2022).

Test [1] concerns the target T1, NMDA receptor (NMDAR; GluN2B-containing) (Mus musculus, UniProt P35438+Q01097).
T1 construct: gene Grin2b; native receptor in DIV 10–12 cerebrocortical neurons; with GluN1
Put plainly: Fluo-3 Ca2+ influx in primary neurons; […] inhibits NMDA response ([…] AUC); IC50 is against PbTx-2-induced influx. It counts as cell-based.

For test [2], the target named is T1, NMDA receptor (NMDAR; GluN2B-containing). The test is described as follows: Fluo-3 NMDA-induced Ca2+ influx in primary neurons, single concentration ([…], […] reduction in AUC). The class given is cell-based.

pIC50: −log10 of the molar value.

T1 sequence (Q01097 27-1482, other chains not shown): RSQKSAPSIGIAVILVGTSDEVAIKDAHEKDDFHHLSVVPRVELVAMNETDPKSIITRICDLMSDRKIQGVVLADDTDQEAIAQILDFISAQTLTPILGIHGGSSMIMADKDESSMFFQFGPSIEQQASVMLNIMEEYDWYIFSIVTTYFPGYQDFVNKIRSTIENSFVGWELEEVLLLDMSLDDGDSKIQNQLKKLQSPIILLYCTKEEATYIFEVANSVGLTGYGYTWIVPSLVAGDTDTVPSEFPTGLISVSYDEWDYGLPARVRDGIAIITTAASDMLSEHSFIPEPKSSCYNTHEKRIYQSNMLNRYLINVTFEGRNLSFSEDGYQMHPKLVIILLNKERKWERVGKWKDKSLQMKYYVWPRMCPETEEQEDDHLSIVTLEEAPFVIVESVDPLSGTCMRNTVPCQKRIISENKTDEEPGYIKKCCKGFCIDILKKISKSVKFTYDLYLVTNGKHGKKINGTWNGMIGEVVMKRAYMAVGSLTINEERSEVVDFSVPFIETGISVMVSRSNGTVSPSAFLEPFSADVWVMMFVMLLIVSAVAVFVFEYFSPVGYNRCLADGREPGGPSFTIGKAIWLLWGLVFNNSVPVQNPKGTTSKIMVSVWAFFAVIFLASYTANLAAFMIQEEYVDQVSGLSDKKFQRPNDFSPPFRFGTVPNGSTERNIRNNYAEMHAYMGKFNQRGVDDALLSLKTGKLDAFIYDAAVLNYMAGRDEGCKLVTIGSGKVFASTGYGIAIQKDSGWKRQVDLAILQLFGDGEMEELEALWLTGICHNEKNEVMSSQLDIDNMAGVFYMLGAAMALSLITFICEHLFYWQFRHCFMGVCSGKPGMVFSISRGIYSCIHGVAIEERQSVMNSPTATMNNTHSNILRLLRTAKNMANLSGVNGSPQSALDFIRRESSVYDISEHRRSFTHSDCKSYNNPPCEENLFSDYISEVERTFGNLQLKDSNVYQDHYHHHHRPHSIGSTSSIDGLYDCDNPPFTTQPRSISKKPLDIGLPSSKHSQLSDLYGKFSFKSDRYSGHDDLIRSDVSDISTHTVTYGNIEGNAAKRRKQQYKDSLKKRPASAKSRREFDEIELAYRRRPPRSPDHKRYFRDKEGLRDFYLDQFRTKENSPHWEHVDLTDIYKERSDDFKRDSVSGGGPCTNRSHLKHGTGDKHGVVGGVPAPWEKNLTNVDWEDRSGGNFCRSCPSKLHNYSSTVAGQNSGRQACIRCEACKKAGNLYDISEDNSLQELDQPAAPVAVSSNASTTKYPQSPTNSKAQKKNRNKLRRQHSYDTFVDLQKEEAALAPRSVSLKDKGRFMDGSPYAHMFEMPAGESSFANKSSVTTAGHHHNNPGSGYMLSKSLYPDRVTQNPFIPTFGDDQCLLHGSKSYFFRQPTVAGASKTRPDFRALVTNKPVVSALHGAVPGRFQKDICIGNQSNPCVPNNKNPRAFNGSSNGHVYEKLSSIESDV

In test [1], `CC(C(O)c1ccc(O)cc1)N1CCC(Cc2ccccc2)CC1` (centres unmarked) [ifenprodil] had a pIC50 of 5.66. For `C[C@]12N[C@H](Cc3ccccc31)c1ccccc12` [MK-801], in test [2], at 1 µM the inhibition was 75%.

What is called pIC50 is the negative decadic logarithm of the IC50, by convention in mol/L. As usually defined, the inhibition is the share of the control response that was lost under treatment.
